Values after ≈ are worked out from the molar mass of the structure shown.
What was measured:
Type in all cases: functional
Staphylococcus aureus [1] = assay: Antibacterial activity against Staphylococcus aureus RN4220 after 20 hrs by twofold serial dilution technique; details: RN4220, 20 h
Escherichia coli [2] = assay: Antibacterial activity against Escherichia coli CCARM 1356 after 20 hrs by twofold serial dilution technique; details: CCARM 1356, 20 h
Staphylococcus aureus [3] = assay: Antibacterial activity against Staphylococcus aureus KCTC 503 after 20 hrs by twofold serial dilution technique; details: KCTC 503, 20 h
Escherichia coli [4] = assay: Antibacterial activity against Escherichia coli CCARM 1924 after 20 hrs by twofold serial dilution technique; details: CCARM 1924, 20 h
Staphylococcus aureus [5] = assay: Antibacterial activity against methicillin-resistant Staphylococcus aureus CCARM 3167 after 20 hrs by twofold serial dilution technique; details: CCARM 3167, 20 h
Staphylococcus aureus [6] = assay: Antibacterial activity against quinolone-resistant Staphylococcus aureus CCARM 3519 after 20 hrs by twofold serial dilution technique; details: CCARM 3519, 20 h
Staphylococcus aureus [7] = assay: Antibacterial activity against quinolone-resistant Staphylococcus aureus CCARM 3505 after 20 hrs by twofold serial dilution technique; details: CCARM 3505, 20 h
Staphylococcus aureus [8] = assay: Antibacterial activity against methicillin-resistant Staphylococcus aureus CCARM 3506 after 20 hrs by twofold serial dilution technique; details: CCARM 3506, 20 h

Compound	MIC (Staphylococcus aureus [1])	MIC (Escherichia coli [2])	MIC (Staphylococcus aureus [3])	MIC (Escherichia coli [4])	MIC (Staphylococcus aureus [5])	MIC (Staphylococcus aureus [6])	MIC (Staphylococcus aureus [7])	MIC (Staphylococcus aureus [8])
O=C(O)CN1C(=O)/C(=C/c2cn(-c3ccccc3)nc2-c2ccc(F)cc2)SC1=S	> 64 µg/mL	> 64 µg/mL	> 64 µg/mL	> 64 µg/mL				
O=C(O)CCCCN1C(=O)/C(=C/c2cn(-c3ccccc3)nc2-c2ccc(Cl)cc2Cl)SC1=S	4 µg/mL (≈ 7.51 µM)	> 64 µg/mL	4 µg/mL (≈ 7.51 µM)	> 64 µg/mL	2 µg/mL (≈ 3.76 µM)	2 µg/mL (≈ 3.76 µM)	2 µg/mL (≈ 3.76 µM)	2 µg/mL (≈ 3.76 µM)
O=C(O)CN1C(=O)/C(=C/c2cn(-c3ccccc3)nc2-c2ccc3ccccc3c2)SC1=S	> 64 µg/mL	> 64 µg/mL	> 64 µg/mL	> 64 µg/mL				
O=C(O)CN1C(=O)/C(=C/c2cn(-c3ccccc3)nc2-c2ccccc2)SC1=S	64 µg/mL (≈ 152 µM)	> 64 µg/mL	64 µg/mL (≈ 152 µM)	> 64 µg/mL	32 µg/mL (≈ 75.9 µM)	32 µg/mL (≈ 75.9 µM)	32 µg/mL (≈ 75.9 µM)	32 µg/mL (≈ 75.9 µM)
CCn1cc(C(=O)O)c(=O)c2cc(F)c(N3CCNCC3)cc21 [NORFLOXACIN]	2 µg/mL (≈ 6.26 µM)	16 µg/mL (≈ 50.1 µM)	2 µg/mL (≈ 6.26 µM)	16 µg/mL (≈ 50.1 µM)	8 µg/mL (≈ 25.1 µM)	> 64 µg/mL	> 64 µg/mL	4 µg/mL (≈ 12.5 µM)
O=C(O)CCCCCN1C(=O)/C(=C/c2cn(-c3ccccc3)nc2-c2ccc(Cl)cc2Cl)SC1=S	32 µg/mL (≈ 58.6 µM)	> 64 µg/mL	8 µg/mL (≈ 14.6 µM)	> 64 µg/mL	4 µg/mL (≈ 7.32 µM)	4 µg/mL (≈ 7.32 µM)	32 µg/mL (≈ 58.6 µM)	32 µg/mL (≈ 58.6 µM)
O=C(O)CN1C(=O)/C(=C/c2cn(-c3ccccc3)nc2-c2ccc([N+](=O)[O-])cc2)SC1=S	> 64 µg/mL	> 64 µg/mL	> 64 µg/mL	> 64 µg/mL				
O=C(O)CN1C(=O)/C(=C/c2cn(-c3ccccc3)nc2-c2ccc(Cl)cc2)SC1=S	8 µg/mL (≈ 17.5 µM)	> 64 µg/mL	8 µg/mL (≈ 17.5 µM)	> 64 µg/mL	8 µg/mL (≈ 17.5 µM)	16 µg/mL (≈ 35.1 µM)	8 µg/mL (≈ 17.5 µM)	8 µg/mL (≈ 17.5 µM)
Cc1ccc(-c2nn(-c3ccccc3)cc2/C=C2\SC(=S)N(CC(=O)O)C2=O)cc1	16 µg/mL (≈ 36.7 µM)	> 64 µg/mL	> 64 µg/mL	> 64 µg/mL	16 µg/mL (≈ 36.7 µM)	64 µg/mL (≈ 147 µM)	16 µg/mL (≈ 36.7 µM)	16 µg/mL (≈ 36.7 µM)
O=C(O)CN1C(=O)/C(=C/c2cn(-c3ccccc3)nc2-c2ccccc2Cl)SC1=S	32 µg/mL (≈ 70.2 µM)	> 64 µg/mL	32 µg/mL (≈ 70.2 µM)	> 64 µg/mL	16 µg/mL (≈ 35.1 µM)	32 µg/mL (≈ 70.2 µM)	32 µg/mL (≈ 70.2 µM)	32 µg/mL (≈ 70.2 µM)
COc1ccccc1-c1nn(-c2ccccc2)cc1/C=C1\SC(=S)N(CC(=O)O)C1=O	> 64 µg/mL	> 64 µg/mL	> 64 µg/mL	> 64 µg/mL				
O=C(O)CCCCCN1C(=O)/C(=C/c2cn(-c3ccccc3)nc2-c2ccc(Cl)cc2)SC1=S	> 64 µg/mL	> 64 µg/mL	> 64 µg/mL	> 64 µg/mL				
O=C(O)CN1C(=O)/C(=C/c2cn(-c3ccccc3)nc2-c2ccccc2F)SC1=S	64 µg/mL (≈ 146 µM)	> 64 µg/mL	64 µg/mL (≈ 146 µM)	> 64 µg/mL	64 µg/mL (≈ 146 µM)	64 µg/mL (≈ 146 µM)	64 µg/mL (≈ 146 µM)	64 µg/mL (≈ 146 µM)
O=C(O)CCCCN1C(=O)/C(=C/c2cn(-c3ccccc3)nc2-c2ccc(Cl)cc2)SC1=S	> 64 µg/mL	> 64 µg/mL	> 64 µg/mL	> 64 µg/mL				
O=C(O)CCCN1C(=O)/C(=C/c2cn(-c3ccccc3)nc2-c2ccc(Cl)cc2Cl)SC1=S	8 µg/mL (≈ 15.4 µM)	> 64 µg/mL	4 µg/mL (≈ 7.72 µM)	> 64 µg/mL	4 µg/mL (≈ 7.72 µM)	4 µg/mL (≈ 7.72 µM)	4 µg/mL (≈ 7.72 µM)	4 µg/mL (≈ 7.72 µM)
Cc1onc(-c2ccccc2)c1C(=O)N[C@@H]1C(=O)N2[C@@H]1SC(C)(C)[C@@H]2C(=O)O [OXACILLIN]	1 µg/mL (≈ 2.49 µM)	> 64 µg/mL	1 µg/mL (≈ 2.49 µM)	> 64 µg/mL	> 64 µg/mL	1 µg/mL (≈ 2.49 µM)	1 µg/mL (≈ 2.49 µM)	> 64 µg/mL
COc1ccc(-c2nn(-c3ccccc3)cc2/C=C2\SC(=S)N(CC(=O)O)C2=O)cc1	> 64 µg/mL	> 64 µg/mL	> 64 µg/mL	> 64 µg/mL				
O=C(O)CN1C(=O)/C(=C/c2cn(-c3ccccc3)nc2-c2ccc(Cl)cc2Cl)SC1=S	8 µg/mL (≈ 16.3 µM)	> 64 µg/mL	8 µg/mL (≈ 16.3 µM)	> 64 µg/mL	4 µg/mL (≈ 8.16 µM)	8 µg/mL (≈ 16.3 µM)	8 µg/mL (≈ 16.3 µM)	4 µg/mL (≈ 8.16 µM)
O=C(O)CN1C(=O)/C(=C/c2cn(-c3ccccc3)nc2-c2ccc(Br)cc2)SC1=S	8 µg/mL (≈ 16 µM)	> 64 µg/mL	8 µg/mL (≈ 16 µM)	> 64 µg/mL	8 µg/mL (≈ 16 µM)	8 µg/mL (≈ 16 µM)	8 µg/mL (≈ 16 µM)	8 µg/mL (≈ 16 µM)
O=C(O)CCCN1C(=O)/C(=C/c2cn(-c3ccccc3)nc2-c2ccc(Cl)cc2)SC1=S	8 µg/mL (≈ 16.5 µM)	> 64 µg/mL	4 µg/mL (≈ 8.26 µM)	> 64 µg/mL	4 µg/mL (≈ 8.26 µM)	4 µg/mL (≈ 8.26 µM)	4 µg/mL (≈ 8.26 µM)	4 µg/mL (≈ 8.26 µM)
O=C(O)CN1C(=O)/C(=C/c2cn(-c3ccccc3)nc2-c2cccc(Cl)c2)SC1=S	16 µg/mL (≈ 35.1 µM)	> 64 µg/mL	> 64 µg/mL	> 64 µg/mL	16 µg/mL (≈ 35.1 µM)	64 µg/mL (≈ 140 µM)	16 µg/mL (≈ 35.1 µM)	32 µg/mL (≈ 70.2 µM)
COc1cccc(-c2nn(-c3ccccc3)cc2/C=C2\SC(=S)N(CC(=O)O)C2=O)c1	64 µg/mL (≈ 142 µM)	> 64 µg/mL	64 µg/mL (≈ 142 µM)	> 64 µg/mL	32 µg/mL (≈ 70.9 µM)	64 µg/mL (≈ 142 µM)	64 µg/mL (≈ 142 µM)	64 µg/mL (≈ 142 µM)
O=C(O)CCN1C(=O)/C(=C/c2cn(-c3ccccc3)nc2-c2ccc(Cl)cc2)SC1=S	8 µg/mL (≈ 17 µM)	> 64 µg/mL	16 µg/mL (≈ 34 µM)	> 64 µg/mL	4 µg/mL (≈ 8.51 µM)	8 µg/mL (≈ 17 µM)	4 µg/mL (≈ 8.51 µM)	4 µg/mL (≈ 8.51 µM)
Cc1ccc(-c2nn(-c3ccccc3)cc2/C=C2\SC(=S)N(CC(=O)O)C2=O)c(C)c1	16 µg/mL (≈ 35.6 µM)	> 64 µg/mL	16 µg/mL (≈ 35.6 µM)	> 64 µg/mL	16 µg/mL (≈ 35.6 µM)	16 µg/mL (≈ 35.6 µM)	16 µg/mL (≈ 35.6 µM)	16 µg/mL (≈ 35.6 µM)
O=C(O)CN1C(=O)/C(=C/c2cn(-c3ccccc3)nc2-c2cccc(Br)c2)SC1=S	8 µg/mL (≈ 16 µM)	> 64 µg/mL	32 µg/mL (≈ 63.9 µM)	> 64 µg/mL	8 µg/mL (≈ 16 µM)	64 µg/mL (≈ 128 µM)	16 µg/mL (≈ 32 µM)	16 µg/mL (≈ 32 µM)
O=C(O)CCN1C(=O)/C(=C/c2cn(-c3ccccc3)nc2-c2ccc(Cl)cc2Cl)SC1=S	8 µg/mL (≈ 15.9 µM)	> 64 µg/mL	4 µg/mL (≈ 7.93 µM)	> 64 µg/mL	4 µg/mL (≈ 7.93 µM)	4 µg/mL (≈ 7.93 µM)	4 µg/mL (≈ 7.93 µM)	4 µg/mL (≈ 7.93 µM)

Source: ChEMBL document CHEMBL1932976, “Synthesis of novel 1,3-diaryl pyrazole derivatives bearing rhodanine-3-fatty acid moieties as potential antibacterial agents” (2012)
